From US20250346615A1, “GLYCEROPHOSP[…] PREVENTING AND TREATING COVID-19 INFECTIONS AND METHOD FOR OBTAINING IT” (PLANTAREI BIOTECH S.R.L., priority 2022, published 2025)
Where two headings read alike, the source gives them in different places.

Experiments:
Human monocytes [1] = conditions: GPI 300 uM; for protein expression level (fold increase over control cells): LPS stimulus
From the text: (§1) The purpose of the experiments conducted is the in vitro evaluation of the anti-inflammatory activity and of the immune modulating power in the response to bacterial or viral activation, of monocytes activated and treated with GPI. Measurements of protein production or miRNA levels were expressed as an increase relative to the respective control (unstimulated) cells.
Human monocytes were isolated from fresh buffy coats of healthy blood donors, kindly provided by the Centro Immunotrasfusionale, Hospital of Ferrara, Italy, through a Ficoll-Paque™ PLUS gradient followed by Percoll™. PBMCs were firstly obtained by 1.077 g/ML Ficoll-Paque™ PLUS (GE Healthcare Life Sciences, Little Chalfont, UK) density gradient separation according to the manufacturer's protocol. After collecting the mononuclear cells located at the interface between Ficoll and plasma-medium layer, these were washed with PBS, then layered over a solution of 1.130 g/mL Percoll™ (GE Healthcare Life Sciences) before centrifugation at 1650 rpm for 30 min at 4° C. The monocyte layer, which appeared cloudy and occasionally with few red spots, was carefully aspirated and washed with PBS to remove traces of Percoll™. The harvested monocytes were then suspended in RPMI 1640 medium (EuroClone) containing 2% FBS, and incubated at 37° C. and 5% CO2. After 1 h, non-adherent cells including residual lymphocytes were removed, and monocytes were detached using a cell scraper, then seeded onto plastic culture wells. […]
The supernatants of the cultures after 5 and 24 h were collected, centrifuged at 400×g for 10 min at 4° C., then analyzed for TF HGF, PGE-2 and IL-10 production using commercial ELISA kits (Thermo Fisher Scientific) according to the manufacturer's instructions. […]
Measurements of protein production or miRNA levels were expressed as fold increase over the respective control (unstimulated) cells, and are means (SD) of triplicates from one representative experiment of 4 experiments performed with cells from different donors.

Human monocytes [2] = conditions: GPI 300 uM, 24 hours of treatment (FIG. 5)
From the text: as §1
Human monocytes were isolated from fresh buffy coats of healthy blood donors, kindly provided by the Centro Immunotrasfusionale, Hospital of Ferrara, Italy, through a Ficoll-Paque™ PLUS gradient followed by Percoll™. […]
Total RNA was extracted from cultures after 12 and 24 h using the total RNA purification Plus kit, The RNA quality and concentration of the samples were measured with the NanoDrop™ ND-1000 (Thermo Fisher Scientific). […]
Real-time PCR was performed according to the user's manual of the Inflammatory RT^2 profiler PCR Array (Qiagen) with a StepOnePlus™ Real-Time PCR System (Applied Biosystems™, Foster City, CA, USA) and using RT^2 SYBR Green ROX FAST Master Mix (Qiagen). Thermal cycling and fluorescence detection were as follows: 95° C. for 10 min, followed by 40 cycles of 95° C. for 15 s, and 60° C. for 1 min. […] Data were analyzed using the Web-based PCR array data analysis software, which is available at https://www.qiagen.com/it/shop/genes-and-pathways/data-analysis-center-overview-page/. […]

Human monocytes [3] = conditions: GPI 300 uM, activated monocytes, 24 hours of treatment (FIG. 6)
From the text: Human monocytes were isolated from fresh buffy coats of healthy blood donors, kindly provided by the Centro Immunotrasfusionale, Hospital of Ferrara, Italy, through a Ficoll-Paque™ PLUS gradient followed by Percoll™. PBMCs were firstly obtained by 1.077 g/ML Ficoll-Paque™ PLUS (GE Healthcare Life Sciences, Little Chalfont, UK) density gradient separation according to the manufacturer's protocol. After collecting the mononuclear cells located at the interface between Ficoll and plasma-medium layer, these were washed with PBS, then layered over a solution of 1.130 g/mL Percoll™ (GE Healthcare Life Sciences) before centrifugation at 1650 rpm for 30 min at 4° C. The monocyte layer, which appeared cloudy and occasionally with few red spots, was carefully aspirated and washed with PBS to remove traces of Percoll™. The harvested monocytes were then suspended in RPMI 1640 medium (EuroClone) containing 2% FBS, and incubated at 37° C. and 5% CO2. After 1 h, non-adherent cells including residual lymphocytes were removed, and monocytes were detached using a cell scraper, then seeded onto plastic culture wells.
Treatment with GPI: 300 uM. […]
Measurements of protein production or miRNA levels were expressed as fold increase over the respective control (unstimulated) cells, and are means (SD) of triplicates from one representative experiment of 4 experiments performed with cells from different donors. […]

## L-α-glycero-phospho-D-myo-inositol [GPI]
Human monocytes [1]; 5 hours of treatment (FIG. 3)
  protein expression level (fold increase over control cells): inhibitory effects
Human monocytes [1]; 24 hours of treatment (FIG. 4)
  protein expression level (fold increase over control cells): inhibitory effects
Human monocytes [1]; monocytes in inflammation / LPS sepsis / viral infection mimicking environment
  inflammatory cytokine production: reduce
Human monocytes [2]
  miRNA level related to M1 (inflammatory) or M2 (antiinflammatory) commitment: inhibitory effects
Human monocytes [3]
  production of IL12 and 23 during inflammation: reduction
